The text below walks through data of patent US11230526B1, “Cylcoalkenyl derivatives useful as agonists of the GPR120 and/or GPR40 receptors” (Janssen Pharmaceutica NV, priority 2018, dated 2022).

By pEC50 is commonly meant the EC50 on a negative log10 scale, so that one unit is a factor of ten.

Molecules are shown by their SMILES. pEC50: −log10 of the molar value.

Holding throughout (type): cell-based
Test [1] addresses T1, Human GPR120 short form (Homo sapiens, UniProt Q5NUL3).
T1 construct: expressed in transfected cells
T1 sequence (Q5NUL3 1-361): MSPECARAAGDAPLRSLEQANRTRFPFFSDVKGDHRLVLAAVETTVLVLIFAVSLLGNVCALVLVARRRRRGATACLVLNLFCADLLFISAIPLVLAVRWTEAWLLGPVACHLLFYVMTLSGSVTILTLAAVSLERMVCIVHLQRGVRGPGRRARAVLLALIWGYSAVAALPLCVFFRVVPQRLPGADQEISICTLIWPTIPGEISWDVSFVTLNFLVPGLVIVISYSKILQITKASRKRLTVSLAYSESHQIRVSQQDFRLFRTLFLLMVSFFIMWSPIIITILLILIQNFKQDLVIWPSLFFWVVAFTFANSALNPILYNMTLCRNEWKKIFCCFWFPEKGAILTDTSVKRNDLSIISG
Kind of test: Human GPR120 calcium flux assay, Procedure Calcium B (4200 cells/well). In outline:
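Agonist EC50 came from a four-parameter fit of RFU (Fmax−Fmin) read over 300 s on FLIPR. Cells were HEK293 stably transfected with human GPR120 (NM_001195755.1) at 4200 per well, serum-starved 1 h and loaded with Fluo-4 NW dye with probenecid before ligand addition.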
In general terms: Calcium flux is commonly read through the fluorescence of an indicator in the cells.

The target in test [2] is T2, short form of the GPR120 receptor (Homo sapiens, UniProt Q5NUL3).
T2 construct: host or cells: PathHunter CHO-K1 GPR120S β-Arrestin Cell Line
Kind of test: Human GPR120 DiscoveRx PathHunter Beta-Arrestin assay, Procedure β-arrestin B. An excerpt:
Human GPR120 DiscoveRx PathHunter® Beta-Arrestin Assay Assay Principle:
The binding of an agonist (medium/long chain fatty acids or small molecule agonists) to the G-protein-coupled receptor GPR120 activates phospholipase C, leading to release of intracellular Ca^+2 through the generation of inositol 1,4,5-trisphosphate (InsP3 or IP3). GPR120 activation can also trigger intracellular signaling via recruitment of Beta-Arrestin. In the present method, agonist-induced activation of the human GPR120 receptor is monitored through the use of PathHunter® CHO-K1 GPR120 Beta-Arrestin Cell Line engineered by DiscoveRx, as detailed below. The cell lines are designed to co-express both the ProLink/Enzyme Donor (PK)-tagged GPCR and the Enzyme […] (EA)-tagged Beta-Arrestin fusion proteins. Upon GPR120 receptor stimulation/activation, the EA-tagged Beta-Arrestin portion is translocated to the tagged receptor, where the two enzyme fragments are brought within close proximity. Under these conditions, these fragments can interact and form an active Beta-gal enzyme complex through Enzyme Fragment Complementation (EFC). This active Beta-gal complex can enzymatically hydrolyse the substrate to produce a detectable light signal; therefore, activation as a function of agonist concentration can be expressed as an EC50 value to determine relative compound activities. This in vitro assay therefore serves to assess compound agonist activity of the GPR120.
In Procedure β-arrestin B the cells used were PathHunter® CHO-K1 GPR120S β-Arrestin Cell Line, expressing the short form of the GPR120 receptor (Accession #[…]), with 5000 cells/well.
The selected CHO-K1 GPR120 β-Arrestin cells were cultured in Ham's F12 media supplemented with 10% fetal bovine serum (FBS), 1% Glutamine, 1×p/s, 800 μg/mL G418 and 300 μg/mL Hygromycin B (for selection). Cell stocks were maintained and grown in a sub-confluent state using standard cell culture procedures. The day before the experiment, the cells were harvested with non-enzymatic cell dissociation buffer and re-suspended in complete growth media at the desired concentration. A Corning 384-plate was then seeded with the proper number of cells in a volume of 25 μL, per well. The seeded plates were incubated overnight at 37° C.
On the day of the experiment, the Assay Buffer containing (a) HBSS with Ca^++ and Mg^++, (b) 20 mM HEPES, and (c) 0.1% BSA stabilizer (pH 7.4) was prepared. The growth medium was gently removed from the cell plates and 20 μL of Assay Buffer added to each well. The plate was then incubated at 37° C. for 60 min. Test compounds were serially diluted in Assay Buffer to desired concentrations (more particularly to one or more of the following μM concentrations: 25, 12.5, 6.25, 3.12, 1.56, 0.78, 0.39, 0.19, 0.10, 0.05, 0.02, 0.01). Five μL of compound dilution was then added to each well and the plate incubated at 37° C. for 90 min. The detection reagents were prepared according to the manufacture's instruction. Twelve μL of the detection reagents were added to each well and the plate incubated at room temperature for 60 min.
The plates were read on an EnVision instrument, using Protocol name: Luminescence, Plate type: 384 Costar, Measurement height: 3 mm, Measurement time: 1 s, Aperture: 384 Plate aperture. The % Activity relative to the positive control was calculated using the following equation:
The % Activity values were plotted versus the concentration of test compound and fitted to a sigmoidal dose-response curve with a Hill slope=1 (fixed value) using nonlinear regression with GraphPad Prism 5.0 to calculate the EC50 values. The Fitting Equation was: Y=Bottom+(Top-Bottom)/(1+10^((Log EC50−X)*HillSlope)), where X is the log of the concentration and Y is the response.

Test [3] has as its target T1, Human GPR120 short form. Nature of the test: Human GPR120 calcium flux assay, Procedure Calcium A (2500 cells/well). In outline: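 HEK293 cells stably expressing human GPR120 short isoform (NM_001195755.1), 2500 cells/well, serum-starved 1 h at 37 °C and loaded with Fluo-4 NW plus probenecid. FLIPR fluorescence read for 300 s after compound addition; response = Fmax−Fmin. EC50 from four-parameter concentration–response fit.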

T2 sequence (P32121 whole entry partner, one chain of several): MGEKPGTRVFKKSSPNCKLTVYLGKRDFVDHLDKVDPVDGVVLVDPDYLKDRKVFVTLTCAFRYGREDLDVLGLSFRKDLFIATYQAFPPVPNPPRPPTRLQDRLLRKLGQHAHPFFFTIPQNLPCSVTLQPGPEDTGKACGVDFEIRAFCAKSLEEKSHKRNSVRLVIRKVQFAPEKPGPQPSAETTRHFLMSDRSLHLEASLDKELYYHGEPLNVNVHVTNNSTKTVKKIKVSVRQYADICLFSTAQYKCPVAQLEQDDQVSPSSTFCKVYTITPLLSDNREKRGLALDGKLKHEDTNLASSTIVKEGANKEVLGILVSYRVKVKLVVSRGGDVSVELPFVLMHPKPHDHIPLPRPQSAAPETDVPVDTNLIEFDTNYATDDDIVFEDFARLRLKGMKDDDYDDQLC

On to `CSc1ccc(C2=C(COc3ccc(CCC(=O)O)c(C)c3C)CCCC2)cc1` [Compound 492, 3-[2,3-dimethyl-4-[[2-(4-methylsulfanylphenyl)cyclohexen-1-yl]methoxy]phenyl]Propanoic Acid], for which the figures for the pEC50 (at Human GPR120 short form [1]; in test [2]; at Human GPR120 short form [3]) were 6.73, 6.14 and 6.24, respectively.
Regarding `Cc1c(CCC(=O)O)ccc(OCC2=C(c3ccc(C(F)(F)F)cc3)CCCC2)c1C` [Compound 460, 3-[2,3-dimethyl-4-[[2-[4-(trifluoromethyl)phenyl]cyclohexen-1-yl]methoxy]phenyl]Propanoic Acid], the negative logarithm of the EC50 (pEC50) at Human GPR120 short form [1] is 6.41; in test [2] it was 6.20; on Human GPR120 short form [3], 6.00.
For `Cc1c(CCC(=O)O)ccc(OCC2=C(c3ccc(Br)cc3)CCCC2)c1C` [Compound 481, 3-[4-[[2-(4-bromophenyl)cyclohexen-1-yl]methoxy]-2,3-dimethyl-phenyl]Propanoic Acid] the same measures were 6.87, 6.32 and 6.60.
For `CSc1ccc(C2=C(COc3ccc(CCC(=O)O)c(C)c3C)CCC2)cc1` [Compound 50, 3-[2,3-dimethyl-4-[[2-(4-methylsulfanylphenyl)cyclopenten-1-yl]methoxy]phenyl]Propanoic Acid] the same measures were 6.74, 6.15 and 6.39.
The corresponding values for `Cc1c(CCC(=O)O)ccc(OCC2=C(c3ccc(I)cc3)CCC2)c1C` [Compound 57, 3-[4-[[2-(4-iodophenyl)cyclopenten-1-yl]methoxy]-2,3-dimethyl-phenyl]Propanoic Acid] are 7.30, 6.59 and 6.28.
